Tests used:
Rat mGlu2 = molecular target: T1, Rat mGlu2 (Rattus norvegicus, UniProt P31421); experiment: mGlu receptor in vitro assay, thallium flux through GIRK channels, rat mGlu2; type: cell-based; conditions: PAM potency with EC20 glutamate
T1 construct: expressed in transfected cells; host or cells: HEK-293 co-expressing GIRK channels
Procedure: (§1) Human Embryonic Kidney (HEK-293) cell lines co-expressing rat mGlu receptors 2, 3, 4, 6, 7 or 8 and G protein-coupled inwardly-rectifying potassium (GIRK) channels were grown in Growth Media containing 45% DMEM, 45% F-12, 10% FBS, 20 mM HEPES, 2 mM L-glutamine, antibiotic/antimycotic, non-essential amino acids, 700 μg/mL G418, and 0.6 μg/ml puromycin at 37° C. in the presence of 5% CO2. […] All cell culture reagents were purchased from Invitrogen Corp. (Carlsbad, CA) unless otherwise noted. Calcium assays were used to assess activity of compounds at mGlu1 and mGlu5, as previously described in Engers et al (J. Med. Chem. 2009, 52, 4115-4118). Calcium assays at mGlu3 were performed as described for mGlu5 with the exception that TREx293 mGlu3 Gα15 cells were treated with tetracycline at 20 ng/mL for 20 h prior to assay.
(§2) Compound activity at the group II (mGlu2 and mGlu3) and group III (mGlu4, mGlu6, mGlu7, and mGlu8) was assessed using thallium flux through GIRK channels, a method that has been described in detail. Briefly, cells were plated into 384-well, black-walled, clear-bottomed poly-D-lysine-coated plates at a density of 15,000 cells/20 μL/well in DMEM containing 10% dialyzed FBS, 20 mM HEPES, and 100 units/mL penicillin/streptomycin (assay media). Plated cells were incubated overnight at 37° C. in the presence of 5% CO2. The following day, the medium was exchanged from the cells to assay buffer [Hanks' balanced salt solution (Invitrogen) containing 20 mM HEPES, pH 7.3] using an ELX405 microplate washer (BioTek), leaving 20 μL/well, followed by the addition of 20 μL/well FluoZin2-AM (330 nM final concentration) indicator dye (Invitrogen; prepared as a stock in DMSO and mixed in a 1:1 ratio with Pluronic acid F-127) in assay buffer. Cells were incubated for 1 h at room temperature, and the dye exchanged to assay buffer using an ELX405, leaving 20 μL/well. Test compounds were diluted to 2 times their final desired concentration in assay buffer (0.3% DMSO final concentration). Agonists were diluted in thallium buffer [125 mM sodium bicarbonate (added fresh the morning of the experiment), 1 mM magnesium sulfate, 1.8 mM calcium sulfate, 5 mM glucose, 12 mM thallium sulfate, and 10 mM HEPES, pH 7.3] at 5 times the final concentration to be assayed. Cell plates and compound plates were loaded onto a kinetic imaging plate reader (FDSS 6000 or 7000; Hamamatsu Corporation, Bridgewater, NJ). Appropriate baseline readings were taken (10 images at 1 Hz; excitation, 470±20 nm; emission, 540±30 nm) and test compounds were added in a 20 μL volume and incubated for approximately 2.5 min before the addition of 10 μL of thallium buffer with or without agonist. After the addition of agonist, data were collected for approximately an additional 2.5 min. Data were analyzed using Excel (Microsoft Corp, Redmond, WA). The slope of the fluorescence increase beginning 5 s after thallium/agonist addition and ending 15 s after thallium/agonist addition was calculated, corrected to vehicle and maximal agonist control slope values, and plotted in using either XLfit (ID Business Solutions Ltd) or Prism software (GraphPad Software, San Diego, CA) to generate concentration-response curves. Potencies were calculated from fits using a four-point parameter logistic equation. For concentration-response curve experiments, compounds were serially diluted 1:3 into 10-point concentration response curves and were transferred to daughter plates using an Echo acoustic plate reformatter (Labcyte, Sunnyvale, CA). Test compounds were applied and followed by EC20 concentrations of glutamate.

Rat mGlu3 = molecular target: T2, Rat mGlu3 (Rattus norvegicus, UniProt P31422); experiment: mGlu receptor in vitro assay (thallium flux through GIRK channels / calcium assay), rat mGlu3; type: cell-based; conditions: PAM potency with EC20 glutamate
T2 construct: expressed in transfected cells; host or cells: HEK-293 co-expressing GIRK channels
T2 sequence (P31422 23-879): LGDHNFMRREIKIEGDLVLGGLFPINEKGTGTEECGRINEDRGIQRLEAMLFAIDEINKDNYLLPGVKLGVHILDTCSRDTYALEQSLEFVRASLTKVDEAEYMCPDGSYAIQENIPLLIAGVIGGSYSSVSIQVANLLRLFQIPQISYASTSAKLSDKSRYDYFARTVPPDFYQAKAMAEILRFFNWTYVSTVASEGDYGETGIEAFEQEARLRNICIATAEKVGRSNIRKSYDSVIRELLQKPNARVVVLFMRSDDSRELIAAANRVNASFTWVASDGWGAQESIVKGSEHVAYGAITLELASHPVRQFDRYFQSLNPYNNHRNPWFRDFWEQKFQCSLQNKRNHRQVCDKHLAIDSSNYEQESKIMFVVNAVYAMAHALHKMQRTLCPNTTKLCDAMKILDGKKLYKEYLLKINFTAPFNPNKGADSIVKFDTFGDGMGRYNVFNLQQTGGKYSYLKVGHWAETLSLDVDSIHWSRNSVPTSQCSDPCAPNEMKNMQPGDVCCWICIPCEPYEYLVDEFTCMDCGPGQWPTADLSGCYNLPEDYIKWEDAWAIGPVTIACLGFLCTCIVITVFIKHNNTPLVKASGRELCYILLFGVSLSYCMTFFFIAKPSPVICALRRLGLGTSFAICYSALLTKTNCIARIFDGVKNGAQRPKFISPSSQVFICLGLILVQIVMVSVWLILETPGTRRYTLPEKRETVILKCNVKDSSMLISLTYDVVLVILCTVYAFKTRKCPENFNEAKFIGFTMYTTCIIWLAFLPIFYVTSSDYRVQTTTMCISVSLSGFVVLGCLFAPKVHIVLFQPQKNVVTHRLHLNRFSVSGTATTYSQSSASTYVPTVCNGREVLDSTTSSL
Procedure: as §1, §2

T1 sequence (P31421 19-872): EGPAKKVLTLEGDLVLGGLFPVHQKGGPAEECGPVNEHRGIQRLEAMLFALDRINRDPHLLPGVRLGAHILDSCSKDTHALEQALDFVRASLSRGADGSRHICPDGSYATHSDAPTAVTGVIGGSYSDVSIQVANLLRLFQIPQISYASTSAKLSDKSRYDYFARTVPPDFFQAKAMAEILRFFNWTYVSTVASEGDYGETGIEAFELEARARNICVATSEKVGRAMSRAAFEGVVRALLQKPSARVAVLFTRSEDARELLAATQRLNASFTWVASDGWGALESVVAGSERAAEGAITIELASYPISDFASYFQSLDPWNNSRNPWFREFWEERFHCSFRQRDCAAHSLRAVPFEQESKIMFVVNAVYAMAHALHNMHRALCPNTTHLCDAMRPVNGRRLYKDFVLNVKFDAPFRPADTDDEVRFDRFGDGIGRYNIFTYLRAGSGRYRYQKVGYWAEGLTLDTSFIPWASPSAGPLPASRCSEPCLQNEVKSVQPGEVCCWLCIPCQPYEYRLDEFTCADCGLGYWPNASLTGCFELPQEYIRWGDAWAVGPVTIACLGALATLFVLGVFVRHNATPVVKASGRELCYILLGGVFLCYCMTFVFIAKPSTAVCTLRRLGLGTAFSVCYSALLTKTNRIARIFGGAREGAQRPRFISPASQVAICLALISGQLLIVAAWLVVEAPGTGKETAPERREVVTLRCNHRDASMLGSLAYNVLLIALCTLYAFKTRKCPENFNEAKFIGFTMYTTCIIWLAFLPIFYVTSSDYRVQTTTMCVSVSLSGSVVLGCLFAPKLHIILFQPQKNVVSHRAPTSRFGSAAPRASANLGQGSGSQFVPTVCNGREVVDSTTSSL

| EC50 (Rat mGlu2) [µM] | EC50 (Rat mGlu3) [µM] | Structure (SMILES) |
| --- | --- | --- |
| > 10 | > 30 | Cc1c(OCc2cnc(-c3cccc(-c4nsc(=O)[nH]4)c3)cn2)ccc(C(=O)CC(C)(C)C)c1O [compound 125, 3-(3-(5-((4-(3,3-Dimethylbutanoyl)-3-hydroxy-2-methylphenoxy)methyl)pyrazin-2-yl)phenyl)-1,2,4-thiadiazol-5(4H)-one] |
| 0.322 | 0.923 | COc1ccc(C(=O)O)cc1OCc1cccc(COc2ccc(C(=O)CC(C)(C)C)c(O)c2C)c1 [compound 90, 3-((3-((4-(3,3-Dimethylbutanoyl)-3-hydroxy-2-methylphenoxy)methyl)benzyl)oxy)-4-methoxybenzoic acid] |
| 1.8 | 0.625 | Cc1c(OCc2cnc(-c3cccc(C(=O)O)c3)cn2)ccc(C(=O)c2ccccc2)c1O [compound 67, 3-(5-((4-Benzoyl-3-hydroxy-2-methylphenoxy)methyl)pyrazin-2-yl)benzoic acid] |
| 2.38 | 4.67 | Cc1c(OCc2cnc(-c3cccc(NC(=O)NS(C)(=O)=O)c3)cn2)ccc(C(=O)CC(C)(C)C)c1O [compound 89, N-((3-(5-((4-(3,3-Dimethylbutanoyl)-3-hydroxy-2-methylphenoxy)methyl)pyrazin-2-yl)phenyl)carbamoyl)methanesulfonamide] |
| 0.482 | 1.02 | CCCC(=O)c1ccc(OCc2cnc(-c3cccc(C(=O)O)c3)cn2)c(C)c1O [compound 118, 3-(5-((4-Butyryl-3-hydroxy-2-methylphenoxy)methyl)pyrazin-2-yl)benzoic acid] |
| > 30 | > 30 | Cc1c(OCc2cnc(-c3cccc(S(N)(=O)=O)c3)cn2)ccc(C(=O)CC(C)(C)C)c1O [compound 117, 3-(5-((4-(3,3-Dimethylbutanoyl)-3-hydroxy-2-methylphenoxy)methyl)pyrazin-2-yl)benzenesulfonamide] |
| > 30 | > 10 | Cc1nc(-c2cccc(-c3cnc(COc4ccc(C(=O)CC(C)(C)C)c(O)c4C)cn3)c2)no1 [compound 86, 1-(2-Hydroxy-3-methyl-4-((5-(3-(5-methyl-1,2,4-oxadiazol-3-yl)phenyl)pyrazin-2-yl)methoxy)phenyl)-3,3-dimethylbutan-1-one] |
| 1.53 | > 10 | Cc1c(OCc2cccc(-c3cccc(NC(=O)NS(C)(=O)=O)c3)c2)ccc(C(=O)CC(C)(C)C)c1O [compound 88, N-((3′-((4-(3,3-Dimethylbutanoyl)-3-hydroxy-2-methylphenoxy)methyl)-[1,1′-biphenyl]-3-yl)carbamoyl)methanesulfonamide] |
| 0.535 | 0.523 | Cc1c(OCc2cnc(-c3ccc(C(=O)O)c(Cl)c3)cn2)ccc(C(=O)CC(C)(C)C)c1O [compound 106, 4-(5-{[4-(3,3-Dimethylbutanoyl)-3-hydroxy-2-methylphenoxy]methyl}pyrazin-2-yl)-2-chlorobenzoic acid] |

The next lines start with the compound.

| Structure (SMILES) | EC50 (Rat mGlu2) [µM] | EC50 (Rat mGlu3) [µM] |
| --- | --- | --- |
| CCCC(=O)c1ccc(OCCCCCCOc2cccc(C(=O)O)c2C)c(C)c1O [Example 55, 3-[6-(4-Butanoyl-3-hydroxy-2-methylphenoxy)hexyloxy]-2-methylbenzoic acid] | 0.182 | 1.17 |
| COc1ccc(C(=O)O)cc1OCCCCOc1ccc(C(=O)C(C)(C)C)c(O)c1C [compound 105, 3-(4-(3-Hydroxy-2-methyl-4-pivaloylphenoxy)butoxy)-4-methoxybenzoic acid] | 0.288 | 0.743 |
| CCCC(=O)c1ccc(OCC[S+]([O-])CCOc2cccc(C(=O)O)c2C)c(C)c1O (centres unmarked) [Example 39, 3-(2-{[2-(4-Butanoyl-3-hydroxy-2-methylphenoxy)ethyl]sulfinyl}ethoxy)-2-methylbenzoic acid] | > 10 | > 30 |
| Cc1c(Oc2cccc(C(=O)O)c2)ccc(C(=O)CC(C)(C)C)c1O [compound 97, 3-[4-(3,3-Dimethylbutanoyl)-3-hydroxy-2-methylphenoxy]benzoic acid] | 1.39 | > 10 |
| CCCCC(=O)c1ccc(OCCCCCOc2cccc(C(=O)O)c2C)c(C)c1O [Example 49, 3-[5-(3Hydroxy-2-methyl-4-pentanoylphenoxy)pentyloxy]-2-methylbenzoic acid] | 0.426 | > 10 |
| Cc1c(OCc2cccc(-c3cccc(C(=O)O)c3)c2)ccc(C(=O)C2CC2)c1O [compound 68, 3′-((4-(Cyclopropanecarbonyl)-3-hydroxy-2-methylphenoxy)methyl)-[1,1′-biphenyl]-3-carboxylic acid] | 0.186 | 3.73 |
| CCCC(=O)c1ccc(OCC#CCOc2ccc(C(=O)O)c(Cl)c2)c(C)c1O [Example 43, 4-[4-(4-Butanoyl-3-hydroxy-2-methylphenoxy)but-2-ynyloxy]-2-chlorobenzoic acid] | 0.033 | > 10 |
| Cc1c(SCCCCOc2cccc(C(=O)O)c2)ccc(C(=O)CC(C)(C)C)c1O [compound 83] | 0.549 | 3.29 |
| CCCC(=O)c1ccc(OCC[S+]([O-])CCOc2ccc(C(=O)O)c(Cl)c2)c(C)c1O (centres unmarked) [Example 40, 4-(2-{[2-(4-Butanoyl-3-hydroxy-2-methylphenoxy)ethyl]sulfinyl}ethoxy)-2-chlorobenzoic acid] | 0.591 | > 30 |
| COc1ccc(C(=O)O)cc1OCCCOc1ccc(C(=O)CC(C)(C)C)c(O)c1C [compound 92, 3-{3-[4-(3,3-Dimethylbutanoyl)-3-hydroxy-2-methylphenoxy]propoxy}-4-methoxybenzoic acid] | 0.057 | 0.234 |
| COc1ccc(NC(=O)NS(C)(=O)=O)cc1OCCCCOc1ccc(C(=O)CC(C)(C)C)c(O)c1C [compound 87, N-((3-(4-(4-(3,3-dimethylbutanoyl)-3-hydroxy-2-methylphenoxy)butoxy)-4-methoxyphenyl)carbamoyl)methanesulfonamide] | 1.32 | 2.39 |
| COc1ccc(C(=O)O)cc1OCCCCOc1ccc(C(O)CC(C)(C)C)c(O)c1C (centres unmarked) [compound 96, 3-{4-[3-Hydroxy-4-(1-hydroxy-3,3-dimethylbutyl)-2-methylphenoxy]butoxy}-4-methoxybenzoic acid] | 1.64 | > 10 |
| COc1ccc(C(=O)O)cc1OCCOCCOc1ccc(C(=O)CC(C)(C)C)c(O)c1C [Example 1, 3-(2-(2-(4-(3,3-Dimethylbutanoyl)-3-hydroxy-2-methylphenoxy)ethoxy)ethoxy)-4-methoxybenzoic acid] | 0.018 | 0.052 |
| Cc1c(OCc2cccc(-c3cccc(C(=O)O)c3)c2)ccc(C(=O)Cc2ccccc2)c1O [compound 161, 3′-((3-Hydroxy-2-methyl-4-(2-phenylacetyl)phenoxy)methyl)-[1,1′-biphenyl]-3-carboxylic acid] | 0.2 | 1.03 |
| CCCC(=O)c1ccc(OCC(=O)c2cccc(-c3cccc(C(=O)O)c3C)c2)c(C)c1O [compound 99, 3-{3-[2-(4-Butanoyl-3-hydroxy-2-methylphenoxy)acetyl]phenyl}-2-methylbenzoic acid] | 0.167 | > 30 |
| Cc1c(OCCCCCOc2ccc(F)c(C(=O)O)c2)ccc(C(=O)CC(C)C)c1O [Example 47, 2-Fluoro-5-{5-[3-hydroxy-2-methyl-4-(3-methylbutanoyl)phenoxy]pentyloxy}benzoic acid] | 0.113 | 2.04 |

From US20250179000A1 (Sanford Burnham Prebys Medical Discovery Institute, priority 2021, published 2025)
